Results from the NIST ThermoML archive (doi:10.1021/je034097r).
Numbers after ± are expanded uncertainties.

Conditions: Capillary rise

COC [dimethyl ether]
Conditions | surface tension liquid-gas [mN/m]
213.12 K | 24.52 ± 0.31
223.11 K | 22.95 ± 0.31
228.19 K | 22.26 ± 0.31
233.31 K | 21.44 ± 0.31
238.15 K | 20.75 ± 0.3
243.12 K | 19.81 ± 0.3
248.12 K | 19.3 ± 0.3
253.09 K | 18.54 ± 0.3
258.11 K | 17.71 ± 0.3
263.12 K | 16.99 ± 0.3
268.08 K | 16.27 ± 0.3
273.08 K | 15.43 ± 0.3
278.06 K | 14.6 ± 0.3
283.07 K | 13.97 ± 0.3
288.04 K | 13.16 ± 0.3
293.09 K | 12.66 ± 0.3
298.08 K | 11.73 ± 0.3
303.2 K | 11 ± 0.3
308.12 K | 10.22 ± 0.3
313.12 K | 9.557 ± 0.3
318.18 K | 9.089 ± 0.3
323.18 K | 8.428 ± 0.3
328.14 K | 7.64 ± 0.3
333.14 K | 7.045 ± 0.3
338.09 K | 6.368 ± 0.3
343.13 K | 5.717 ± 0.3
348.07 K | 5.148 ± 0.3
353.11 K | 4.435 ± 0.3
358.11 K | 3.94 ± 0.3
363.1 K | 3.315 ± 0.3
368.04 K | 2.779 ± 0.3
